Experimental data published in ChEMBL document CHEMBL1201862, “PubChem BioAssay data set” (2004).
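Assay format: 96-well plates, 48-hour exposure. GI50 is the concentration that inhibits growth by half.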 Active and inactive are the calls of the source. Rule as the data show it: active = GI50 up to about 1.1 µM and inactive = higher.

Legend:
Test in all cases: NCI tumour cell line growth inhibition, 48 h
[1] = system: OVCAR-5
[2] = system: HL-60
[3] = system: SK-MEL-28
[4] = system: MCF7
[5] = system: COLO 205
[6] = system: MOLT-4
[7] = system: MDA-N
[8] = system: HCC 2998
[9] = system: SR
[10] = system: UO-31
[11] = system: NCI/ADR-RES
[12] = system: HCT-116
[13] = system: MDA-MB-435
[14] = system: Malme-3M
[15] = system: T47D
[16] = system: M14
[17] = system: NCI-H23
[18] = system: IGROV-1
[19] = system: ACHN
[20] = system: SF-295
[21] = system: OVCAR-8
[22] = system: A549
[23] = system: SN12C
[24] = system: SK-MEL-5
[25] = system: OVCAR-4
[26] = system: K562
[27] = system: BT-549
[28] = system: MDA-MB-231
[29] = system: SNB-75
[30] = system: SW-620
[31] = system: SK-MEL-2
[32] = system: EKVX
[33] = system: 786-0
[34] = system: SK-OV-3
[35] = system: LOX IMVI
[36] = system: TK-10
[37] = system: RXF 393
[38] = system: CAKI-1
[39] = system: SNB-19
[40] = system: DU-145
[41] = system: HT-29
[42] = system: CCRF-CEM
[43] = system: Hs-578T
[44] = system: NCI-H522
[45] = system: RPMI-8226
[46] = system: HCT-15
[47] = system: SF-268
[48] = system: HOP-62
[49] = system: NCI-H226
[50] = system: UACC-257
[51] = system: PC-3
[52] = system: SF-539
[53] = system: NCI-H460
[54] = system: OVCAR-3
[55] = system: KM12
[56] = system: U-251
[57] = system: HOP-92

Structure (SMILES): CC(=O)N1C(c2[nH]c3ccccc3c2-c2ccccc2)CCN1c1ccccc1 (stereo unspecified)
- GI50 [1]: > 10 µM (inactive)
- GI50 [2]: > 10 µM (inactive)
- GI50 [3]: > 10 µM (inactive)
- GI50 [4]: > 10 µM (inactive)
- GI50 [5]: > 10 µM (inactive)
- GI50 [6]: > 10 µM (inactive)
- GI50 [7]: > 10 µM (inactive)
- GI50 [8]: > 10 µM (inactive)
- GI50 [9]: > 10 µM (inactive)
- GI50 [10]: > 10 µM (inactive)
- GI50 [11]: > 10 µM (inactive)
- GI50 [12]: > 10 µM (inactive)
- GI50 [13]: > 10 µM (inactive)
- GI50 [14]: > 10 µM (inactive)
- GI50 [15]: > 10 µM (inactive)
- GI50 [16]: > 10 µM (inactive)
- GI50 [17]: > 10 µM (inactive)
- GI50 [18]: > 10 µM (inactive)
- GI50 [19]: > 10 µM (inactive)
- GI50 [20]: > 10 µM (inactive)
- GI50 [21]: > 10 µM (inactive)
- GI50 [22]: > 10 µM (inactive)
- GI50 [23]: > 10 µM (inactive)
- GI50 [24]: > 10 µM (inactive)
- GI50 [25]: > 10 µM (inactive)
- GI50 [26]: 9.18 µM (inactive)
- GI50 [27]: > 10 µM (inactive)
- GI50 [28]: > 10 µM (inactive)
- GI50 [29]: > 10 µM (inactive)
- GI50 [30]: > 10 µM (inactive)
- GI50 [31]: > 10 µM (inactive)
- GI50 [32]: > 10 µM (inactive)
- GI50 [33]: > 10 µM (inactive)
- GI50 [34]: > 10 µM (inactive)
- GI50 [35]: > 10 µM (inactive)
- GI50 [36]: > 10 µM (inactive)
- GI50 [37]: > 10 µM (inactive)
- GI50 [38]: > 10 µM (inactive)
- GI50 [39]: > 10 µM (inactive)
- GI50 [40]: > 10 µM (inactive)
- GI50 [41]: > 10 µM (inactive)
- GI50 [42]: 7.8 µM (inactive)
- GI50 [43]: > 10 µM (inactive)
- GI50 [44]: > 10 µM (inactive)
- GI50 [45]: > 10 µM (inactive)
- GI50 [46]: > 10 µM
- GI50 [47]: > 10 µM (inactive)
- GI50 [48]: > 10 µM (inactive)
- GI50 [49]: > 10 µM (inactive)
- GI50 [50]: > 10 µM (inactive)
- GI50 [51]: 8.97 µM (inactive)
- GI50 [52]: > 10 µM (inactive)
- GI50 [53]: > 10 µM (inactive)
- GI50 [54]: > 10 µM (inactive)

Structure (SMILES): CCn1c2c(c3c(C(=O)OC)c(O)ccc31)C(=O)c1ccccc1C2=O
- GI50 [1]: 18.4 µM (inactive)
- GI50 [2]: 22.1 µM (inactive)
- GI50 [3]: 16.9 µM (inactive)
- GI50 [4]: 16.4 µM (inactive)
- GI50 [5]: 17.1 µM (inactive)
- GI50 [55]: 16.6 µM (inactive)
- GI50 [6]: 12.1 µM (inactive)
- GI50 [7]: 11.9 µM (inactive)
- GI50 [56]: 14.7 µM (inactive)
- GI50 [8]: 19.4 µM (inactive)
- GI50 [9]: 11.3 µM (inactive)
- GI50 [10]: 4.57 µM (inactive)
- GI50 [11]: 16.6 µM (inactive)
- GI50 [12]: 13.1 µM (inactive)
- GI50 [13]: 12.9 µM (inactive)
- GI50 [14]: 15.8 µM (inactive)
- GI50 [15]: 8.07 µM (inactive)
- GI50 [16]: 14.2 µM (inactive)
- GI50 [17]: 18.3 µM (inactive)
- GI50 [18]: 3.61 µM (inactive)
- GI50 [19]: 4.69 µM (inactive)
- GI50 [20]: 17.3 µM (inactive)
- GI50 [21]: 11.6 µM (inactive)
- GI50 [22]: 13.9 µM (inactive)
- GI50 [23]: 11.9 µM (inactive)
- GI50 [24]: 11.7 µM (inactive)
- GI50 [25]: 10.2 µM (inactive)
- GI50 [26]: 20.4 µM (inactive)
- GI50 [27]: 12.5 µM (inactive)
- GI50 [28]: 15.4 µM (inactive)
- GI50 [29]: 4.36 µM (inactive)
- GI50 [30]: 15 µM (inactive)
- GI50 [31]: 11.5 µM (inactive)
- GI50 [32]: 26 µM (inactive)
- GI50 [33]: 12.2 µM (inactive)
- GI50 [34]: 5 µM (inactive)
- GI50 [35]: 13.2 µM (inactive)
- GI50 [36]: 32.4 µM (inactive)
- GI50 [37]: 16.1 µM (inactive)
- GI50 [38]: 15.5 µM (inactive)
- GI50 [39]: 22.3 µM (inactive)
- GI50 [40]: 11.1 µM (inactive)
- GI50 [41]: 19.3 µM (inactive)
- GI50 [42]: 15 µM (inactive)
- GI50 [43]: 10.1 µM (inactive)
- GI50 [44]: 5.9 µM (inactive)
- GI50 [45]: 7.6 µM (inactive)
- GI50 [46]: 7.85 µM
- GI50 [47]: 15.3 µM (inactive)
- GI50 [48]: 15.7 µM (inactive)
- GI50 [57]: 5.52 µM (inactive)
- GI50 [49]: 9.18 µM (inactive)
- GI50 [50]: 40.6 µM (inactive)
- GI50 [51]: 12.4 µM (inactive)
- GI50 [52]: 13.2 µM (inactive)
- GI50 [53]: 7.19 µM (inactive)
- GI50 [54]: 16.4 µM (inactive)
